# Assay results as given in patent EP0423240B1, “MODULATION OF VIRUS-HOST CELL INTERACTIONS USING CYCLIC OLIGOSACCHARIDES” (THE TRUSTEES OF THE UNIVERSITY OF PENNSYLVANIA, priority 1988, dated 1990).
# What was measured:
# [1] = system: HIV-1; assay: Viral RNA analysis by dot blot; assay type: cell-based; conditions: target cells infected in the presence of compound, 1 mM, 72 hours post-infection
# Method: Virus particles were incubated with target cells in the presence or absence of […] of β-CD-14S. At 72 hours post infection, the cells were washed and dot blot assays were performed to determine the presence or absence of viral RNA production. In (A), target cells were infected in the presence of sulfated β-cyclodextrin (lane A), in the absence of cyclodextrins (lane B), or in the presence of unsubstituted β-cyclodextrin (lane C). 1/2 dilutions of cells are from left to right starting with 10⁶ cell/well utilized. In (B), virally infected cells (+) or uninfected cells (-) were assayed for their ability to produce viral RNA by dot blot analysis. CD = infected cells incubated with 1 mM of β-CD-14S. 1/2 dilutions of cells are from top to bottom starting with 10⁶ cell/well.
# Virus treated cells were grown in tissue culture and harvested for assay at 72 hrs. post-infection. The cell concentrations were then adjusted to 1 x 10⁶ cells/m1 with phosphate buffered saline and spotted directly onto prewetted gene screen utilizing a dot blot apparatus. The filter was then fixed in 3% NaC1, 10 mM NaH₂PO₄, (pH 7.2) containing 1% gluteraldehyde at 4°C for 1 hr. The fixed blot was then rinsed three times with proteolytic buffer (50mM EDTA, 0.1 M Tris-HC1 (pH 8.0), 20 µg/ml proteinase K) for 30 minutes at 37°C. The filter was air dried until being probed. A Sall-Xho1 probe derived from the pIIIenv1 plasmid (a generous gift of Dr. J. Sodrofsky) and encoding the envelope region of the HXB2, HIV-1 virus was labeled by the random primer method using standard technology and hybridized to the filter as previously described (Weiner et al., 1986, Cell Immunol. 100:197).
# To determine if the cyclodextrins were interfering with steps relevant to viral replication, the ability of these compounds to inhibit viral nucleic acid synthesis was determined. Virus particles were incubated with target cells in the presence or absence of 1 mM of β-CD-14S. At 72 hours post-infection, the cells were washed and dot blot assays were performed to determine the presence or absence of viral RNA production. […]
# [2] = system: HIV-1; assay: HIV-1 induced syncytia assay, IIIb infected H9 cells cocultured with Supt-1 target cells; assay type: cell-based; conditions: for number of syncytia formed: HIV-1, number and size of syncytia
# Method: (§1) For the assay of HIV-1 fusion, Supt T1 cells were used as target cells. They fuse rapidly when cocultured with HIV-1 (H9/IIIb) producing cell lines. For the assay of HIV-2 mediated cell fusion, H9 cells were used as target cells. They fuse rapidly when cocultured with HIV-2 (CEMROD-2) producing cell lines. HIV infected cells were plated in 96 well plates (10⁴ cells/well in RPMI 1640 + 10% FCS) and incubated with or without dilution of compounds for 30 minutes at 37°C. Target cells are then added 5 x 10⁵/well and the number of syncytia are qualitatively determined after the incubation periods described in the text.
# In a series of additional experiments, analysis of HIV-1 induced syncytia was performed by coculturing H9 cells infected with the IIIb isolate with uninfected Supt-1 (a human CD4+ T cell line) cells as targets. […]
# [3] = system: HIV-2; assay: HIV-2 induced syncytia assay, ROD-2 infected cells cocultured with H9 target cells; assay type: cell-based; conditions: HIV-2, number and size of syncytia
# Method: as §1, with “text. […]” for “text.”
# [4] = system: HTLV-IIIb cell free virus; assay: Reverse transcriptase assay of HIV infectivity, cell free virus on target cells, 10 day incubation; assay type: cell-based, HIV-1; conditions: 1/2 dilutions from 2.5 mM, result in words
# Method: Figure 2 illustrates the effects of cyclodextrin and cyclodextrin derivatives on HIV infectivity as determined by reverse transcriptase activity. Samples assayed are (A) untreated control cells, (B) β-cyclodextrin unsubstituted ring, (C) partially sulfated β-cyclodextrin ring, (D) propylated β-cyclodextrin ring, (E) sulfated β-cyclodextrin ring, and (F) methylated β-cyclodextrin ring. Numbers indicate 1/2 dilutions of test compounds with 1 = 2.5 mM concentration of compound.
# Virus infected cells were pelleted by centrifugation and 50 µl of culture suprenatant was collected from each well for assay. Culture supernatant (25 µl) was plated in 96 well round bottomed plates and 50 µl of transcriptase cocktail was added to each well. Cocktail is 50 mM Tris-HC1, pH 8.0, 20 mM DTT, 0.6 mM MnC1₂, 60 mM NaC1, 0.05% NP-40, 5 µg/ml dt (oligodeoxythymidilic acid), 10 µg/ml poly A (polyriboadenylic acid), 10 µM dTTP, 1 Ci/mm ³²P dTTP. Plates were then incubated for 60 minutes at 37°C. After incubation samples were spotted onto Whatman DEAE-81 paper, washed and analyzed by counting or direct autoradiography.
# The ability of cyclodextrins to inhibit HIV infection was assessed in vitro utilizing reverse transcriptase assays as described Section 6.1.2, supra. HTLV-IIIb cell free virus stocks were inoculated onto target cells in the presence or absence of the synthetic compounds.
# [5] = Water solubility at 0°C; assay type: physicochemical; conditions: 0°C, H₂O
# Method: The cyclic oligosaccharide derivatives useful in the present invention are highly hydrophilic and therefore very water soluble. A highly hydrophilic character probably is important to allow interaction with cellular surfaces. The hydrophilic activity is likely roughly indicated by the affinity to water, as measured by water solubility. It is important to measure the same at 0°C since at higher temperatures the most suitable derivative have solubilities so high that meaningful measurements are difficult.
smiles,measurement,setting,value
"OC[C@H]1O[C@@H]2O[C@H]3[C@H](O)[C@@H](O)[C@@H](O[C@H]4[C@H](O)[C@@H](O)[C@@H](O[C@H]5[C@H](O)[C@@H](O)[C@@H](O[C@H]6[C@H](O)[C@@H](O)[C@@H](O[C@H]7[C@H](O)[C@@H](O)[C@@H](O[C@H]8[C@H](O)[C@@H](O)[C@@H](O[C@H]1[C@H](O)[C@H]2O)O[C@@H]8CO)O[C@@H]7CO)O[C@@H]6CO)O[C@@H]5CO)O[C@@H]4CO)O[C@@H]3CO [Beta-CD, β-cyclodextrin, reference compound]",HIV-1 specific RNA,[1],substantial viral RNA was detected
same,number of syncytia formed,[2]; 1.3 mM,4 L
same,number of syncytia formed,[2]; 2.5 mM,4 L
same,number of syncytia formed,[2]; .01 mM,4 L
same,number of syncytia formed,[2]; .02 mM,4 L
same,number of syncytia formed,[2]; .04 mM,4 L
same,number of syncytia formed,[2]; .08 mM,4 L
same,number of syncytia formed,[2]; .16 mM,4 L
same,number of syncytia formed,[2]; .32 mM,4 L
same,number of syncytia formed,[2]; .63 mM,4 L
same,inhibiting syncytia formation of HIV-1,[2]; result in words,as ineffective as media alone
same,number of syncytia formed,[3]; 1.3 mM,4 L
same,number of syncytia formed,[3]; 2.5 mM,4 L
same,number of syncytia formed,[3]; .01 mM,4 L
same,number of syncytia formed,[3]; .02 mM,4 L
same,number of syncytia formed,[3]; .04 mM,4 L
same,number of syncytia formed,[3]; .08 mM,4 L
same,number of syncytia formed,[3]; .16 mM,4 L
same,number of syncytia formed,[3]; .32 mM,4 L
same,number of syncytia formed,[3]; .63 mM,4 L
same,inhibition of viral infectivity (reverse transcriptase activity),[4],no inhibition of viral infectivity
same,solubility,[5],7000 µg/mL
